Patent publication US5716963A, “Anthraquinonic derivatives having an antitumor activity and applications thereof” (Universidad Complutense De Madrid, priority 1994, dated 1998)
Values after ≈ are worked out from the molar mass of the structure shown.

What was measured:
A-549 = assay: IC50 growth inhibition, A-549 monolayer culture (crystal violet); format: cell-based; conditions: Homo sapiens, A549, 72 h, three days, 37° C., 10% CO2, crystal violet 0.1%, approximate IC50, in duplicate
Description: (§1) Cell cultures: The cells were kept in logarithmic phase of growth in Eagle's Minimum Essential Medium, with Earle's Balanced Salts, with L-gluatamine 2.0 mM, with non-essential amino acids and without sodium bicarbonate (EMEM-NEAA); supplemented with Fetal Calf Serum (FCS) 10% sodium bicarbonate 10^-2 and with 0.1 g/l penicillin-G+-streptomycin sulfate.
(§2) To determine and to compare the antitumor activity of these compounds, a simple screening process was carried out using an adapted form of the method described by Bergeron et al. (1984) ((1) Raymond J. Bergeron, Paul F. Cavanaugh, Jr., Steven J. Kline, Robert G. Hughes, Jr., Gary T. Elliot and Carl W. Porter. Antineoplastic and antiherpetic activity of spermidine catecholamide iron chelators. Biochem. Bioph. Res. Comm. 1984, 121 (3), 848-854; (2) Alan C. Schroeder, Robert G. Hughes, Jr. and Alexander Bloch. Effects of Acyclic pyrimidine nucleoside analogues. J. Med. Chem. 1981, 24, 1078-1083). The antitumor cells used have been P-388 (culture in DBA/2 mouse lymphoid neoplasm suspension), A-549 (human lung carcinoma monolayer culture); HT-29 human colon carcinoma monolayer culture) and MEL (human melanoma monolayer culture).
(§3) The A-549, HT-29 and MEL-28 cells were seeded in 16 mm cups at […] cells per cup in aliquots of […] of MEM 10FCS that contain the indicated drug concentration. Separately, a batch of cultures without any drug was seeded as a growth control to ensure that the cells were kept in a logarithmic phase of growth. All the determinations were carried out in duplicate. After three days of incubation at 37° C., 10% CO2 in an atmosphere with 98% humidity, the cups were stained with crystal violet 0.1%. The approximate IC50 was determined by comparing the growth in the cups with the drug and the growth in the control cups.

P-388 = assay: IC50 growth inhibition, P-388 suspension culture; format: cell-based, DBA/2 mouse; conditions: Mus musculus, P388, 72 h, three days, 37° C., 10% CO2, approximate IC50, in duplicate
Description: as §1, §2
The P-388 cells were seeded in 16 mm cups at 1×10^4 cells per cup in aliquots at 1 ml. MEM 5FCS that contains the indicated drug concentration. Separately, a batch of cultures without any drug was seeded as a growth control to ensure that the cells were kept in a logarithmic phase of growth. All the determinations were carried out in duplicate. After three days of incubation at 37° C., 10% CO2 in an atmosphere with 98% humidity, the approximate IC50 was determined by comparing the growth in the cups with the drug and the control cups.

HT-29 = assay: IC50 growth inhibition, HT-29 monolayer culture (crystal violet); format: cell-based; conditions: Homo sapiens, 72 h, three days, 37° C., 10% CO2, crystal violet 0.1%, approximate IC50, in duplicate
Description: as §1, §2, §3

MEL-28 = assay: IC50 growth inhibition, MEL-28 monolayer culture (crystal violet); format: cell-based; conditions: Homo sapiens, SK-MEL-28, 72 h, three days, 37° C., 10% CO2, crystal violet 0.1%, approximate IC50, in duplicate
Description: as §1, §2, §3

Gram positive bacteria = conditions: cited from earlier work
thymidilate synthetase = conditions: cited from earlier work

IC50 (A-549) [µg/mL]	IC50 (HT-29) [µg/mL]	Compound	IC50 (P-388) [µg/mL]	IC50 (MEL-28) [µg/mL]	activity against Gram positive bacteria (Gram positive bacteria)	capacity to inhibit thymidilate synthetase (thymidilate synthetase)
0.25 (≈ 0.921 µM)	1 (≈ 3.69 µM)	CC1=C(C)CC2C(=O)c3c(C)cc(=O)[nH]c3C(=O)C2C1 (stereo not shown) [(I-a), 4,6,7-trimethyl-5,8,8a,10a-tetrahydro-1H-1-azaathracen-2,9,10-trione]	1 (≈ 3.69 µM)	–	–	–
0.25 (≈ 0.935 µM)	10 (≈ 37.4 µM)	CCOc1nc2c(cc1C)C(=O)c1ccccc1C2=O [(I-b), 2-ethoxy-3-methyl-1-azaanthracen-9,10-dione]	5 (≈ 18.7 µM)	5 (≈ 18.7 µM)	–	–
0.025 (≈ 0.0879 µM)	0.1 (≈ 0.352 µM)	CCc1cc2c([nH]c1=O)C(=O)c1[nH]c(=O)cc(C)c1C2=O [(I-c)]	0.1 (≈ 0.352 µM)	0.1 (≈ 0.352 µM)	–	–
0.02 (≈ 0.0775 µM)	0.05 (≈ 0.194 µM)	Cc1cc(=O)[nH]c2c1C(=O)c1cc(F)cnc1C2=O [(I-e), 6-fluoro-4-methyl-1H,1,8-diazaanthracen-2,9,10-trione]	0.005 (≈ 0.0194 µM)	0.05 (≈ 0.194 µM)	–	–
0.02 (≈ 0.0706 µM)	0.02 (≈ 0.0706 µM)	Cc1cc(=O)[nH]c2c1C(=O)c1cc(N(C)C)cnc1C2=O [(I-f), 6-dimethylamino-4-methyl-1H-1,8-diazaanthracen-2,9,10-trione]	0.02 (≈ 0.0706 µM)	0.02 (≈ 0.0706 µM)	–	–
0.05 (≈ 0.138 µM)	0.05 (≈ 0.138 µM)	Cc1cc(=O)[nH]c2c1C(=O)C1=C(NC=CC1c1ccccc1[N+](=O)[O-])C2=O (stereo not shown) [(I-g), 4-methyl-5-(2-nitrophenyl)-5,8-dihydro-1H-1,8-diazaanthracen-2,9,10-trione]	0.5 (≈ 1.38 µM)	0.1 (≈ 0.275 µM)	–	–
0.05 (≈ 0.185 µM)	0.05 (≈ 0.185 µM)	Cc1cc(=O)[nH]c2c1C(=O)c1cc(C)c(=O)[nH]c1C2=O [(I-h), 3,5-dimethyl-1,8-dihydro-1,8-diazaanthracen-2,7,9,10-tetraone]	0.05 (≈ 0.185 µM)	0.025 (≈ 0.0925 µM)	–	–
0.1 (≈ 0.406 µM)	0.1 (≈ 0.406 µM)	O=C1c2cc(F)cnc2C(=O)c2ncc(F)cc21 [(I-i), 3,6-difluoro-1,8-diazaanthracen-9,10-dione]	0.025 (≈ 0.102 µM)	0.025 (≈ 0.102 µM)	–	–
5 (≈ 15.8 µM)	10 (≈ 31.6 µM)	Cc1cnc2c(c1)C(=O)c1cc(-c3ccccc3)c(=O)[nH]c1C2=O [(I-j), 6-methyl-3-phenyl-1H-1,8-diazaanthracen-2,9,10-trione]	2.5 (≈ 7.9 µM)	> 10	–	–
0.25 (≈ 1.03 µM)	0.25 (≈ 1.03 µM)	CC1C(F)=CNC2=C1C(=O)c1ccccc1C2=O (stereo not shown) [(I-k), 3-fluoro-4-methyl-1,4-dihydro-1-azaanthracen-9,10-dione]	0.25 (≈ 1.03 µM)	0.12 (≈ 0.493 µM)	–	–
0.05 (≈ 0.22 µM)	0.25 (≈ 1.1 µM)	O=C1c2ccccc2C(=O)c2ncc(F)cc21 [(I-l), 3-fluoro-1-azaanthracen-9,10-dione]	0.25 (≈ 1.1 µM)	0.05 (≈ 0.22 µM)	–	–
–	–	CCCc1c2c([nH]c(=O)c1C)C(=O)c1[nH]c(=O)c(C)c(CCC)c1C2=O [Diazaquinomycin A]	–	–	goods activity against Gram positive bacteria	capacity to inhibit thymidilate synthetase

Compound	IC50 (A-549) [µg/mL]	IC50 (HT-29) [µg/mL]	IC50 (P-388) [µg/mL]	IC50 (MEL-28) [µg/mL]	activity against Gram positive bacteria (Gram positive bacteria)	capacity to inhibit thymidilate synthetase (thymidilate synthetase)
CC(=O)c1cc2c([nH]c1=O)C(=O)c1ncc(C)cc1C2=O [(I-d)]	0.25 (≈ 0.886 µM)	1 (≈ 3.54 µM)	1 (≈ 3.54 µM)	0.25 (≈ 0.886 µM)	–	–
